Target: Ribosome
Test: Inhibition of protein biosynthesis at the level of the peptidyl transferase center of the 50 s ribosomal subunit
Assay type: subcellular

Kd: ~1000 nM
SMILES: O=C(N[C@H](CO)[C@H](O)c1ccc([N+](=O)[O-])cc1)C(Cl)Cl [CHLORAMPHENICOL]

Reference: ChEMBL document CHEMBL1152004, “Chloramphenicol: High dilution FT-IR evidence for an intramolecular hydrogen bond” (Bioorg Med Chem Lett, 1991)
